Assays:
[1] = target: T1, serotonin receptor (3H-Ketanserin binding, cerebral cortex nucleus-microsome-containing fraction) (Rattus norvegicus, UniProt P14842); experiment: Receptor-binding test (3H-Ketanserin tracer, rat cerebral cortex receptor fraction); conditions: 3H-Ketanserin 1 nM, Wistar rat cerebral cortex receptor, 37° C. 30 min; read-out: IC50 (50% inhibition of specific binding of the tracer to the receptor)
T1 construct: the resultant nucleus-microsome-containing fraction (=receptor) was stored at -80° C; from tissue; host or cells: Wistar rat (male) cerebral cortex, nucleus-microsome-containing fraction
T1 sequence (P14842 whole entry): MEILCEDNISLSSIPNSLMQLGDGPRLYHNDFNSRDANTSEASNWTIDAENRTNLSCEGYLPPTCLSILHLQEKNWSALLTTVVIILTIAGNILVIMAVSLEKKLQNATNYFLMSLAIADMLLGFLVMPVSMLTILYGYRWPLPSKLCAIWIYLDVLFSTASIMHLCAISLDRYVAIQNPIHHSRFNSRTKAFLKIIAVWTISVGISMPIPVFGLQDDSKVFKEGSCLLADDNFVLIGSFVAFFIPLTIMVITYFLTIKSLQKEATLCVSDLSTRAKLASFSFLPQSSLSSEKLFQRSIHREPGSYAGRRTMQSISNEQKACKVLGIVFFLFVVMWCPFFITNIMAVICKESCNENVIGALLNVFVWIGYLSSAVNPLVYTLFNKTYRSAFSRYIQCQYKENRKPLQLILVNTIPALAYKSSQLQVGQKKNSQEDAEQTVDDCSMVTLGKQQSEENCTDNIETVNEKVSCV
Description: (1) Receptor-binding Test
(a) Preparation of Receptor
Wistar strain male rats (300-500 g) were killed by decapitation. Cerebral cortex was removed, homogenized in 50 mM Tris-HCl buffer, pH 7.4, and centrifuged at 50,000×g for 20 min at 4° C. After washing precipitates with the same buffer, the resultant nucleus-microsome-containing fraction (=receptor) was stored at -80° C. until use.
The receptor obtained above (0.5 ml, equivalent to 5 mg of tissue) was incubated at 37° C. for 30 min in 0.4 ml of the above-mentioned buffer containing 0.1 ml of ^3 H-Ketanserin tracer (77 Ci/mmol; a final concentration of 1 nM) in the final volume of 1.0 ml. The reaction mixture was filtered under vacuum through a GF/B glass filter (Whatman). After washing the filter with the buffer, radio activity bound to filter was measured by a liquid scintilation spectrophotometer (Aloka, LSC-900) to obtain the total binding activity of the tracer.
Non-specific binding activity of the tracer, i.e., the binding activity of the tracer to materials other than the receptor, was evaluated using the same assay system except for that serotonin was added to the reaction mixture to the final concentration of 1 mM in order to block the binding of the tracer to the receptor. The specific binding activity of the tracer to the receptor was determined by subtracting the non-specific binding activity from the total binding activity.
(c) IC50 (concentration of a test compound requisite for producing a 50% inhibition)
Concentration (ng/ml) of compounds of the invention (serotonin antagonist) which produces a 50% inhibition of specific binding of the tracer to the receptor was determined as follows.
The assay system and procedure as described in (b) were employed except for that amitriphtyline hydrochloride as a control or a compound of the invention was added to the assay system with various concentrations of from 10^-1 to 10^-5 ng/ml. The specific binding activity was determined at each concentration, and a dose-response curve was prepared. A concentration of the compound in ng/ml required for producing 50% inhibition of specific binding of the tracer to the receptor (IC50) was determined on the basis of the dose-response curve.

[2] = target: T2, serotonin-induced constriction of caudal artery (Rattus norvegicus, UniProt P14842); experiment: Inhibition test against serotonin-induced constriction of caudal artery in rats; format: cell-based; conditions: Wistar rat caudal artery spiral strip, from shift of serotonin ED50; read-out: Ki (inhibition constant against serotonin-induced constriction)
T2 construct: Caudal artery was removed and spiral strip was prepared; from tissue; host or cells: Wistar rat (male) caudal artery, spiral strip
T2 sequence (P14842 whole entry): as above
Description: (2) Inhibition Test against Serotonin-induced Constriction of Caudal Artery in Rats Wistar strain male rats (300-500 g) were sacrificed by striking the animals at the occiput. Caudal artery was removed and spiral strip was prepared according to the procedure of J. M. van Nueten, The Journal of Pharmacology and Experimental Therapeutics 218(1): 217-230 (1981).
The spirit strip was ligated at both ends with cotton thread and placed in a magunus tube containing 10 ml of Krebs-Henselite solution (37° C., bubbled with a mixture of 95% O2 and 5% CO2). One end of the thread was connected to Isometric Transducer (Nihon Koden-kogyo Kikai). Isometric contraction was measured using Isometric Amplifier (Nihon Koden-kogyo Kikai) under a tension of 0.5 g.
The control contruction by cumulatively added serotonin(final concentration: 10^-9 --10^-5 M) was measured and then the control ED50 value of serotonin was determined. Subsequently, the strip was washed three times with Krebs-Henselite solution and a compound of the invention was added at a suitable concentration (final concentration: 10^-8, 10^-7, 10^-6, or 10^-5 M). Two minutes later, serotonin was cumulatively added at concentrations from 10^-9 to 10^-5 or 10^-3 M, and the ED50 value in the test group was determined.
ED50 values were calculated by "Probit Analysis". In Probit Analysis, an intercept, slope and spontaneous (threshold) reaction ratio of the curve obtained by biological analysis can be calculated according to the following "Probit equation" with highest reliability: [formula] .PHI.: the cumulative distributing relationships of standard normal distribution. […]
x: average dose (concentration of serotonin) y: probability of reaction (contractility rate of vascular smooth muscle) a, b, c: parameter; a, b>0, 1>c>0.
Inhibition constant (Ki) for each compound was determined according to the following equation: [formula]

SMILES | IC50 [1] [nM] | Ki [2] [nM]
CN(C)CCOc1ccccc1CCc1ccccc1 [Compound No. 1] | 96.2 | 6.33
CN(C)CCCOc1ccccc1CCc1ccccc1 [Compound No. 2] | 33.8 | 4.55
CN(C)CCCCOc1ccccc1CCc1ccccc1 [compound 3] | 115 | 9.78
CN(C)CCCCCOc1ccccc1CCc1ccccc1 [compound 4] | 377 | 37.6
CN(C)CCCCCCOc1ccccc1CCc1ccccc1 [compound 5] | 152 | 74.9
CNCCCCOc1ccccc1CCc1ccccc1 [compound 6] | 156 | 70.6
NCCCCOc1ccccc1CCc1ccccc1 [compound 7] | – | 280
c1ccc(CCc2ccccc2OCCCCN2CCCCC2)cc1 [compound 8] | – | 67.6
O=C(O)C1CCN(CCCCOc2ccccc2CCc2ccccc2)CC1 [compound 9] | – | 198
CN(C)CCCCOc1cccc(CCc2ccccc2)c1 [compound 10] | – | 517
CN(C)CCCCOc1ccc(CCc2ccccc2)cc1 [compound 11] | – | 416
COc1cccc(CCc2ccccc2OCCCCN(C)C)c1 [compound 12] | – | 13.1
CN(C)CCCOc1ccccc1CCc1ccc(N(C)C)cc1 [compound 13] | – | 23.3
COc1cccc(CCc2ccccc2OCC(CN(C)C)OC(=O)CCC(=O)O)c1 (stereo not drawn) [compound 14] | – | 17.8
COc1cccc(CCc2ccccc2OCC(O)CN(C)C)c1 (stereo not drawn) [compound 15] | – | 1.16
COc1cccc(CCc2ccccc2OCC(CN(C)C)OCCC(=O)O)c1 (stereo not drawn) [compound 16] | – | 1.05
CN(C)CC(COc1ccccc1CCc1cccc(F)c1)OC(=O)CCC(=O)O (stereo not drawn) [compound 17] | – | 41.3
CN(C)CC(O)COc1ccccc1CCc1ccccc1 (stereo not drawn) [compound 18] | – | 13.9
CN(C)CCCCOc1ccccc1CCc1cccc(Cl)c1 [compound 19] | – | 13.5
CN(C)CCCCOc1ccc(Cl)cc1CCc1ccccc1 [compound 20] | – | 25.7
COc1cccc(CCc2ccccc2)c1OCCCCN(C)C [compound 21] | – | 85.7

— patent US5032614A, “Serotonin antagonist” (Mitsubishi Kasei Corporation, priority 1989, dated 1991)
